# Laboratory results from patent US20220267728A1, “ALLOGENIC CAR-T CELL THERAPY” (TX MEDIC AB, priority 2019, published 2022).
# What was measured:
# whole blood = experiment: Human whole blood loop assay: ACT kaolin time and prothrombin/INR time (i-STAT cartridges); conditions: for Activated clotting time (ACT) / Prothrombin time (PT) / international normalized ration (INR): dextran sulfate 0.2 mg/ml, no CAR-T cells
# Procedure: The objective of this Example was to investigate dextran sulfate in a human whole blood loop assay in combination with CAR-T cells. Cellular activation and viability and blood status was assessed after incubation in the human whole loop system with dextran sulfate with and without CAR-T cells.
# (§1) Blood from healthy donors was taken in an open system and immediately mixed with test compounds (CD19-CAR T cells and dextran sulfate (Tikomed AB, Sweden, WO 2016/076780, referred to as IBsolvMIR in the figures). Autologous setting included CAR-T cells generated from the same donor that donated whole blood. In allogeneic setting, blood and CAR-T cells were not matched (from different donors). All materials in direct contact with whole blood were surface heparinized in accordance with the manufacturers protocol (Corline, Sweden). Whole blood (2 ml) was added to PVC-tubing, which, with a surface heparinized metal connector, formed a loop. The dextran sulfate (0.2 g/L) and CAR-T cells (0.5-5×10^6 cells) were added according to Table 1, and the loops were set to rotate on a wheel at 37° C. Blood aliquots were sampled, andeEthylenediaminetetraacetic acid (EDTA) was added to a final concentration of 10 mM to stop reactions at a given time-point. The automated hematology analyzer XP-300 or XN-350 (Sysmex) was used to assess blood cell count at different time points, while i-STAT cartridges (Abbott) were used to measure ACT kaolin time and prothrombin/INR time measurements.
# C3a = experiment: Complement analysis (C3a) ELISA on plasma from whole blood loops; design: species or system human; conditions: data not shown
# Procedure: The plasma samples were kept on ice, and plasma was collected by centrifugation at 2000×g at 4° C. for 20 minutes. The plasma was stored at −70° C. until the time of analysis. Complement analysis (C3a) was performed on plasma collected at various time points after assay start with ELISA kits from RayBiotech according to the manufacturers instructions. For experiments involving flow cytometry, blood samples were mixed with EDTA (final concentration of 10 mM), followed by the Fc block (BD Biosciences) and antibody master mix containing anti-human fluorochrome-labeled antibodies for surface staining (CD3, CD4, CD8, CD20, CD56, CD16, CD66b, CD14, BioLegend), including activation markers (CD107a, CD69, CD11b, Biolegend). Antibody master mix was incubated with whole blood for 30 min at 4° C., washed with PBS and analyzed using Cytoflex (Beckman Coulter).
# [1] = system: T cell population (CD3+, CD4+, CD8+ T cells); experiment: Whole blood loop assay: flow cytometry of blood donor T cells (activation markers, viability); type: cell-based, human; conditions: groups with and without dextran sulfate; 60 min; FIGS. 3A to 3I
# Text: as §1, with “The automated hematology analyzer XP-300 or XN-350 (Sysmex) was used to assess blood cell count at different time points, while i-STAT cartridges (Abbott) were used to measure ACT kaolin time and prothrombin/INR time measurements.” left out
# (§2) The plasma samples were kept on ice, and plasma was collected by centrifugation at 2000×g at 4° C. for 20 minutes. […] Antibody master mix was incubated with whole blood for 30 min at 4° C., washed with PBS and analyzed using Cytoflex (Beckman Coulter).
# CAR-T cell population = experiment: Whole blood loop assay: flow cytometry of CAR-T cell population (CAR marker, CD69, CD107a, viability); type: cell-based, human
# Procedure: Peripheral blood mononuclear cells (PBMCs) were isolated from healthy donors using Lymphoprep (Progen), stored in −70° C. in freezing medium (10% dimethyl sulfoxide (DMSO), 90% fetal calf serum (FCS)) and cultured in RPMI-1640 supplemented with 10% FCS and 1% penicillin/streptomycin. The PBMCs were activated with 1 μg/ml OKT-3 (Biolegend) and 200 IU/ml IL-2 (Roche) for 1 day to selectively stimulate T cells. Retronectin plates (Takara) were prepare in advance (7 μg per well, overnight at 4° C.) and incubated twice with 500 μl concentrated CD19-CAR-encoding retrovirus (2G) or Mock retrovirus, previously described in Karlsson et al., Evaluation of Intracellular Signaling Downstream Chimeric Antigen Receptors, PLOS ONE 2015, 10(12):e0144787, for 30 min at 37° C. Activated cells were transduced with 3 ml concentrated CD19-CAR-encoding retrovirus or Mock retorvirus for 2 days at 37° C. in the presence of retronectin-coated plates and 100 IU IL-2. Cells were cultured with 100 IU/ml IL-2 and expanded for 2 weeks before analysis. For analysis of CD19-CAR expression, cells were stained with 0.5 μl of anti-CAR-Dylight649 (Jackson ImmunoResearch), washed with phosphate-buffered saline (PBS) and followed by surface labeling (CD3, CD8, CD4, TF). Flow cytometry analysis was performed using Cytoflex (Beckman Coulter). Cell count and cell viability was determined using trypan blue (T-20 Counter, Bio-Rad).
# as §1, with “The automated hematology analyzer XP-300 or XN-350 (Sysmex) was used to assess blood cell count at different time points, while i-STAT cartridges (Abbott) were used to measure ACT kaolin time and prothrombin/INR time measurements.” left out
# as §2
# [2] = system: B cell population (CD19+); experiment: Whole blood loop assay: flow cytometry of B cells (count, CD69, CD107a); type: cell-based, human
# Text: as §1, with “The automated hematology analyzer XP-300 or XN-350 (Sysmex) was used to assess blood cell count at different time points, while i-STAT cartridges (Abbott) were used to measure ACT kaolin time and prothrombin/INR time measurements.” left out
# as §2
# monocyte population = experiment: Whole blood loop assay: CD11b on monocytes by flow cytometry; type: cell-based, human; conditions: addition of dextran sulfate to loops; FIG. 9A
# Text: as §1, with “The automated hematology analyzer XP-300 or XN-350 (Sysmex) was used to assess blood cell count at different time points, while i-STAT cartridges (Abbott) were used to measure ACT kaolin time and prothrombin/INR time measurements.” left out
# as §2
# granulocyte population = experiment: Whole blood loop assay: CD11b on granulocytes by flow cytometry; type: cell-based, human; conditions: addition of dextran sulfate to loops; FIG. 9B
# Text: as §1, with “The automated hematology analyzer XP-300 or XN-350 (Sysmex) was used to assess blood cell count at different time points, while i-STAT cartridges (Abbott) were used to measure ACT kaolin time and prothrombin/INR time measurements.” left out
# as §2
# [3] = allogenic donor, time point 60 min
# [4] = autologous donor, time point 10 min
# [5] = autologous donor, time point 60 min
substance,measurement,setting,value
dextran sulfate,"coagulation measurements (ACT, PTT, INR)","whole blood; Table 2 and Table 3, autologous and allogenic donor",rise in all coagulation measurements
same,Activated clotting time (ACT),whole blood; [3],356 s
same,Prothrombin time (PT),whole blood; [3],30.7 s
same,international normalized ration (INR),whole blood; [3],2.7
same,Activated clotting time (ACT),whole blood; [4],485 s
same,Prothrombin time (PT),whole blood; [4],16.5 s
same,international normalized ration (INR),whole blood; [4],1.4
same,Prothrombin time (PT),whole blood; [5],17.9 s
same,international normalized ration (INR),whole blood; [5],1.5
same,C3a levels,C3a; in co-administration with CAR-T cells,decreased levels of C3a
same,C3a levels,"C3a; substance added alone, both donors",decreased levels of C3a
same,"viability and activation of T cell population (blood donors CD3+, CD4+, CD8+ T cells)",[1],similar
same,percentage of cells positive for the CAR-T cell specific marker in the T cell population,"CAR-T cell population; allogenic donor, FIG. 4A",increased
same,viability of the CAR-T cells,"CAR-T cell population; autologous donor, without or with dextran sulfate, FIG. 5C",~60%
same,"proportion of CD3+ CAR-T cells and CD8+ CAR-T cells, autologous versus allogenic groups",CAR-T cell population; when dextran sulfate was added,more similar
same,"levels of activation markers (CD69, CD107a) in the allogenic CAR-T cell groups","CAR-T cell population; with dextran sulfate, compared with autologous CAR-T cell groups, FIGS. 5A, 5B and 6",more similar to the levels of activation markers in the autologous CAR-T cell groups
same,impact on CAR functionality,[2]; from B cell count and activation pattern,did not have any negative impact
same,B cell count and activation pattern,[2]; samples with or without dextran sulfate,similar
same,expression of activation marker CD11 b on monocytes,monocyte population,decreased
same,expression of activation marker CD11 b on granulocytes,granulocyte population,decreased
